Measured values taken from ChEMBL document CHEMBL4673219, “Novel 5,6-disubstituted pyrrolo[2,3-d]pyrimidine derivatives as broad spectrum antiproliferative agents: Synthesis, cell based assays, kinase profile and molecular docking study” (Bioorg Med Chem, 2018).

Legend:
[1] = tested on: SK-BR-3; assay: Antiproliferative activity against human SK-BR-3 cells assessed as cell growth inhibition measured after 72 hrs by MTT assay; assay type: functional
[2] = tested on: SK-BR-3; assay: Antiproliferative activity against human SK-BR-3 cells assessed as cell growth inhibition at 10 uM measured after 72 hrs by MTT assay relative to control; assay type: functional; conditions: read-out: GI
[3] = tested on: MCF7; assay: Antiproliferative activity against human MCF7 cells assessed as cell growth inhibition at 10 uM measured after 72 hrs by MTT assay relative to control; assay type: functional; conditions: read-out: GI
[4] = tested on: HCT-116; assay: Antiproliferative activity against human HCT-116 cells assessed as cell growth inhibition at 10 uM measured after 72 hrs by MTT assay relative to control; assay type: functional; conditions: read-out: GI
[5] = tested on: HCT-116; assay: Antiproliferative activity against human HCT-116 cells assessed as cell growth inhibition measured after 72 hrs by MTT assay; assay type: functional
[6] = tested on: MCF7; assay: Antiproliferative activity against human MCF7 cells assessed as cell growth inhibition measured after 72 hrs by MTT assay; assay type: functional
[7] = biological target: Fibroblast growth factor receptor 2 (Homo sapiens) (UniProt P21802); assay: Inhibition of human FGFR2 at 10 uM using myelin basic protein as substrate incubated for 40 mins in presence of [gamma33P]ATP by scintillation counting method relative to control
Chain of Fibroblast growth factor receptor 2 (Homo sapiens) (P21802 22-821 limits assumed): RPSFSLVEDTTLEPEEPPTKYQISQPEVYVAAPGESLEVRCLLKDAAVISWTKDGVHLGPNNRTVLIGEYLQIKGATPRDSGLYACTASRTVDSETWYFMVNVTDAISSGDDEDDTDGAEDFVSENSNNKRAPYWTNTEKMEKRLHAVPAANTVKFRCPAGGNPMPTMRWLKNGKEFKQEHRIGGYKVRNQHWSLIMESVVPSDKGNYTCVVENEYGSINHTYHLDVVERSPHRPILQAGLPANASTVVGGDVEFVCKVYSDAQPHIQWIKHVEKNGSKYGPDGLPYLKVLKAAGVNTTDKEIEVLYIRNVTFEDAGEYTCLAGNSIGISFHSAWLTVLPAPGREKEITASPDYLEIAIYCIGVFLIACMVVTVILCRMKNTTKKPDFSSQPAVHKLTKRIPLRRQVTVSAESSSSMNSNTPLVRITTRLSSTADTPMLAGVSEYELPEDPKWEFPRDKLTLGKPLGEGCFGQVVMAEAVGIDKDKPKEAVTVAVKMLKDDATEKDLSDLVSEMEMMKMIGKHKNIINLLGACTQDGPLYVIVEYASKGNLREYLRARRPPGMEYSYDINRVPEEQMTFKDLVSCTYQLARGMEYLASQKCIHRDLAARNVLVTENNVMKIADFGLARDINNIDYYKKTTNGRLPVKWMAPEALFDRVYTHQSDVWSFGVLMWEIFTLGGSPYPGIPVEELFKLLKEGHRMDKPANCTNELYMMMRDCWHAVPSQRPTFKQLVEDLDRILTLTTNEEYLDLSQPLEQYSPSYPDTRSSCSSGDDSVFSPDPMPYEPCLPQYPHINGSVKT

[8] = biological target: Fibroblast growth factor receptor 1 (Homo sapiens) (UniProt P11362); assay: Inhibition of human FGFR1 at 10 uM using myelin basic protein as substrate incubated for 40 mins in presence of [gamma33P]ATP by scintillation counting method relative to control
Chain of Fibroblast growth factor receptor 1 (Homo sapiens) (P11362 22-822 limits assumed): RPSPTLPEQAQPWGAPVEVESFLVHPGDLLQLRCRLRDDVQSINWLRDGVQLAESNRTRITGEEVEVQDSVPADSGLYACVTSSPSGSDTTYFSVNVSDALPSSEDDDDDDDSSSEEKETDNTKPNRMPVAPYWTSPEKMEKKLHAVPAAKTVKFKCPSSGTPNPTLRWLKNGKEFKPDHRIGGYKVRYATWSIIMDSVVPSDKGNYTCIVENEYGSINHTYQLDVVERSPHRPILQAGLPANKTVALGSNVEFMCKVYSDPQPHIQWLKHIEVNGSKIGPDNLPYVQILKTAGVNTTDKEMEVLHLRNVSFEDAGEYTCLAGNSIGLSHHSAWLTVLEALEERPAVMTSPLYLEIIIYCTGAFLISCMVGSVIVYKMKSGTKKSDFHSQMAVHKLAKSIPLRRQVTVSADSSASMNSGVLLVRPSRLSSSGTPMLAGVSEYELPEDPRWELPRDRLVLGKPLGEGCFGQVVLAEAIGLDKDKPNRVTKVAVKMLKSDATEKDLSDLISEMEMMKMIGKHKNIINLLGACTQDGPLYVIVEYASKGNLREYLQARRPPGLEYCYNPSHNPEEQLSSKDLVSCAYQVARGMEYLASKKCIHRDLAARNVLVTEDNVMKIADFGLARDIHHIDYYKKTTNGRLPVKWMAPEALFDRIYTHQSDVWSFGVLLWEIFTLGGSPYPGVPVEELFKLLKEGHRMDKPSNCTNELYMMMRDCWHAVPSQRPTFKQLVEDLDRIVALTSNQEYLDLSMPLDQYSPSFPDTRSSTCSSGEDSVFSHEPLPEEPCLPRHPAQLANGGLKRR

[9] = biological target: High affinity nerve growth factor receptor (Homo sapiens, UniProt P04629); assay: Inhibition of human Trk-A using myelin basic protein as substrate incubated for 40 mins in presence of [gamma33P]ATP by scintillation counting method
Chain of High affinity nerve growth factor receptor (P04629 whole entry): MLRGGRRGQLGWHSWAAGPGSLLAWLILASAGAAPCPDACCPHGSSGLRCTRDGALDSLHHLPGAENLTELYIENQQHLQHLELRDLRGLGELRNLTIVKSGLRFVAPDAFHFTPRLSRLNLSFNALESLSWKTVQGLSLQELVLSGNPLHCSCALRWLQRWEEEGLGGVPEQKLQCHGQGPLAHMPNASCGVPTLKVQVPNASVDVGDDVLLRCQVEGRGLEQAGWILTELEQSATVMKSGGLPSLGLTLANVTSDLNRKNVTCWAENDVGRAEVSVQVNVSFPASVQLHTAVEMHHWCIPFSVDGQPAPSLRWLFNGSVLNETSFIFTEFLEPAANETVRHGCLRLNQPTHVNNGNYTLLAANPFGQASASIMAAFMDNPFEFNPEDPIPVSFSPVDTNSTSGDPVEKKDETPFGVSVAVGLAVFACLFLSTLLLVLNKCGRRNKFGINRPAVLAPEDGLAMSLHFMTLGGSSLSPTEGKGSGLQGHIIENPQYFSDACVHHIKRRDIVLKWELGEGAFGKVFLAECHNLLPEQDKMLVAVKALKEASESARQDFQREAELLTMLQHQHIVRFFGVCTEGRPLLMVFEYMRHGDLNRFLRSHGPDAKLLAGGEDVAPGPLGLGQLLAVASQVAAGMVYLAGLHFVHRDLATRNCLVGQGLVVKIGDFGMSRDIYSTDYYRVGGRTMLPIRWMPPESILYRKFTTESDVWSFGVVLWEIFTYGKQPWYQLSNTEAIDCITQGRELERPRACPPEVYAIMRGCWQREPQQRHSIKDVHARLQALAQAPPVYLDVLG

Row | Compound | GI50 [1] [µM] | inhibition of growth at 10 µM [2] [%] | inhibition of growth at 10 µM [3] [%] | inhibition of growth at 10 µM [4] [%] | GI50 [5] [µM] | GI50 [6] [µM] | inhibition [7] [%] | inhibition [8] [%] | IC50 [9] [µM]
1 | CCCCCCCC(=O)Nc1nc2[nH]c(CN3CCN(C(c4ccccc4)c4ccccc4)CC3)c(CN3CCN(C(c4ccccc4)c4ccccc4)CC3)c2c(=O)[nH]1 | 6.43 | 67.3 | 15.2 | 41.5 | 18.4 |  |  |  | 
2 | Nc1nc2[nH]cc(CN3CCN(C(c4ccccc4)c4ccccc4)CC3)c2c(=O)[nH]1 |  | 4.22 | 79.5 | 80.5 | 20.3 | 33.9 |  |  | 
3 | Nc1nc2[nH]c(CN3CCN(c4ccc([N+](=O)[O-])cc4)CC3)c(CN3CCN(c4ccc([N+](=O)[O-])cc4)CC3)c2c(=O)[nH]1 |  | 6.79 | 1.26 | 1.94 |  |  |  |  | 
4 | CN1CCN(Cc2c[nH]c3nc(N)[nH]c(=O)c23)CC1 |  | 29 | 20.2 | 16.5 |  |  |  |  | 
5 | CCCCCCCC(=O)Nc1nc2[nH]cc(CN3CCN(c4cccc(Cl)c4)CC3)c2c(=O)[nH]1 | 0.95 | 69.7 | 43.4 | 72.7 | 7.17 |  |  |  | 
6 | Nc1nc2[nH]cc(CN3CCN(CCN4CCOCC4)CC3)c2c(=O)[nH]1 |  | 27.1 | 19.5 | 15.4 |  |  |  |  | 
7 | COc1c(C)cnc(Cn2cnc3c(Cl)nc(N)nc32)c1C [BIIB021] | 0.347 | 71.9 | 84.8 | 86.2 |  | 0.392 |  |  | 
8 | Nc1nc(O)c2c(CN3CCCCC3)c[nH]c2n1 |  | 17.5 | 23.8 | 24.1 |  |  |  |  | 
9 | CCCCCCCC(=O)Nc1nc2[nH]cc(CN3CCN(c4ccc(OC)cc4)CC3)c2c(=O)[nH]1 | 1.23 | 71.4 | 49.2 | 71.4 | 8.94 |  |  |  | 
10 | Nc1nc2[nH]c(CN3CCN(C(c4ccccc4)c4ccccc4)CC3)c(CN3CCN(C(c4ccccc4)c4ccccc4)CC3)c2c(=O)[nH]1 |  | 11.1 | 13.8 | 10.7 |  |  |  |  | 
11 | Nc1nc2[nH]cc(Cn3ccnc3)c2c(=O)[nH]1 |  | 38.8 | 38.8 | 50.6 |  |  |  |  | 
12 | Nc1nc2[nH]cc(CN3CCN(c4ccc([N+](=O)[O-])cc4)CC3)c2c(=O)[nH]1 |  | 27.5 | 26.8 | 28.5 |  |  |  |  | 
13 | Nc1nc2[nH]cc(CN3CCN(CCO)CC3)c2c(=O)[nH]1 |  | 32.8 | 18.8 | 17.8 |  |  |  |  | 
14 | Nc1nc2[nH]c(CN3CCN(Cc4ccccc4F)CC3)c(CN3CCN(Cc4ccccc4F)CC3)c2c(=O)[nH]1 |  | 59 | 8.91 | 12.8 |  |  |  |  | 
15 | CCCCCCCC(=O)Nc1nc2[nH]cc(CN3CCN(C(=O)c4ccco4)CC3)c2c(=O)[nH]1 |  | 71.2 | 68.5 | 60.2 |  |  |  |  | 
16 | CCCCCCCC(=O)Nc1nc2[nH]c(CN3CCN(Cc4ccc(F)cc4)CC3)c(CN3CCN(Cc4ccc(F)cc4)CC3)c2c(=O)[nH]1 | 3.6 | 93.5 | 97.2 | 97.1 | 4.13 | 1.75 | 14.7 | 50.5 | 2.76
17 | CCCCCCCC(=O)Nc1nc2[nH]cc(CN3CCN(C(c4ccccc4)c4ccccc4)CC3)c2c(=O)[nH]1 | 0.41 | 67.4 | 58.4 | 75.5 | 1.01 |  |  |  | 
18 | CCCCCCCC(=O)Nc1nc2[nH]cc(CN3CCN(Cc4cccc(F)c4)CC3)c2c(=O)[nH]1 | 5.58 | 91.2 | 85.7 | 92.8 | 5.34 | 7.84 |  |  | 
19 | CCCCCCCC(=O)Nc1nc2[nH]cc(Cn3ccnc3)c2c(=O)[nH]1 |  | 86.1 | 68.2 | 80.5 |  |  |  |  | 
20 | CCCCCCCC(=O)Nc1nc2[nH]c(CN3CCN(c4cc(Cl)cc(Cl)c4)CC3)c(CN3CCN(c4cc(Cl)cc(Cl)c4)CC3)c2c(=O)[nH]1 |  | 42.5 | 10.7 | 6.88 |  |  |  |  | 
